Measurements reported in ChEMBL document CHEMBL1150499, “Excitatory amino acids: 6-phosphonomethyltetrahydro-4-pyrimidinecarboxylic acids and their acyclic analogues are competitive N-methyl-D-aspartic acid receptor antagonists” (Bioorg Med Chem Lett, 1992).

Target: Glutamate NMDA receptor
Assay: Compound was evaluated for its ability to displace […] binding for NMDA receptor
Format: protein-complex assay

IC50 [nM]	Structure (SMILES)
240	NC(CC(CP(=O)(O)O)S(=O)O)C(=O)O (stereo not drawn)
28	O=C(O)C1CN(CCCP(=O)(O)O)CCN1 (stereo not drawn)
24	O=C(O)[C@@H]1C[C@H](CP(=O)(O)O)CCN1 [SELFOTEL]
420	O=C(O)C1CC(CCCP(=O)(O)O)N=CN1 (stereo not drawn)
2270	NC(CCCP(=O)(O)O)CC(N)C(=O)O (stereo not drawn)

Structure (SMILES)	IC50 [nM]
NC(CC(O)CP(=O)(O)O)C(=O)O (stereo not drawn)	130
O=C(O)C1CC(CP(=O)(O)O)N=CN1 (stereo not drawn)	5950
NC(CC(N)C(=O)O)CP(=O)(O)O (stereo not drawn)	1440
